The values that follow come from ChEMBL document CHEMBL4732190, “Identification of Potent and Long-Acting Single-Chain Peptide Mimetics of Human Relaxin-2 for Cardiovascular Diseases” (J Med Chem, 2021).

For orientation: EC50 means the concentration giving half of the maximal effect. One may read the Emax as the size of the effect at its maximum, as opposed to the concentration needed. Broadly, the half-life is the time in which the quantity being followed falls by half. Read a low half-life as fast loss. What is called Ki is a measure of affinity in units of concentration, obtained from inhibition or displacement.

Data set [1] concerns the target T1, Relaxin receptor 1 (Homo sapiens, UniProt Q9HBX9).
T1 sequence (Q9HBX9 whole entry): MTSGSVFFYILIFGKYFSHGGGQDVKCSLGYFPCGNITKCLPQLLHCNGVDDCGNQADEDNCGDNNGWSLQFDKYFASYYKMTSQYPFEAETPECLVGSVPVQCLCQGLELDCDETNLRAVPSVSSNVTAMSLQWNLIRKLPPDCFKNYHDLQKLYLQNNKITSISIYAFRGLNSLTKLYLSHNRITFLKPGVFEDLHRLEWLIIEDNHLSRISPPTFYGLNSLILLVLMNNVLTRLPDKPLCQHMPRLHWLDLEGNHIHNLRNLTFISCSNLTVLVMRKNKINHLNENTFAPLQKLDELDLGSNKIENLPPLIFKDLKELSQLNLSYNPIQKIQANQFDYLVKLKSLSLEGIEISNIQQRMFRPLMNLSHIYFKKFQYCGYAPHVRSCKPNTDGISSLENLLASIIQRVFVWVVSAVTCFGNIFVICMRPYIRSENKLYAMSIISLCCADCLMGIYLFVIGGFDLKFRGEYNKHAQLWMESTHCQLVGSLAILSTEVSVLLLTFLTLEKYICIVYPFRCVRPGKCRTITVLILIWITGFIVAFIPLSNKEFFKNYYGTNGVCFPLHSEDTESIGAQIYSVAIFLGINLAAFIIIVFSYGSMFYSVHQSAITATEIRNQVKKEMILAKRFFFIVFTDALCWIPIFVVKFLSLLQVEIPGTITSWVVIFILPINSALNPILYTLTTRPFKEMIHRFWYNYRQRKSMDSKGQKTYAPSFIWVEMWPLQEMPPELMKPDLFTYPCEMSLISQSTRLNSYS
Kind of data set: Agonist activity at RXFP1 endogenously expressed in human OVCAR-5 cells assessed as increase in IBMX-induced cAMP accumulation pretreated with IBMX for 40 mins followed by compound addition and measured after 30 mins by HTRF assay. Format: functional, cell-based.

The target in data set [2] is T2, Relaxin receptor 1 (Homo sapiens) (UniProt Q9HBX9).
T2 sequence (whole entry): T1 sequence (Q9HBX9 whole entry)
Kind of data set: Agonist activity at RXFP1 endogenously expressed in human OVCAR-5 cells assessed as increase in IBMX-induced cAMP accumulation pretreated with IBMX for 40 mins followed by compound addition and measured after 30 mins by HTRF assay relative to relaxin. The format is functional, cell-based. To be noted: filed as agonist.

Data set [3] in a line: Positive chronotropic activity in pithed Sprague-Dawley rat assessed as increase in heart rate at 10 microg/kg, iv administered as bolus dose recorded over 60 mins relative to control. To be noted: in vivo, 0.01 mg/kg, 1 h, dose 10 µg/kg. The format is ADME, organism-based.
The target in data set [4] is T3, Relaxin receptor 1 (Rattus norvegicus, UniProt Q6R6I6).
T3 sequence (Q6R6I6 whole entry): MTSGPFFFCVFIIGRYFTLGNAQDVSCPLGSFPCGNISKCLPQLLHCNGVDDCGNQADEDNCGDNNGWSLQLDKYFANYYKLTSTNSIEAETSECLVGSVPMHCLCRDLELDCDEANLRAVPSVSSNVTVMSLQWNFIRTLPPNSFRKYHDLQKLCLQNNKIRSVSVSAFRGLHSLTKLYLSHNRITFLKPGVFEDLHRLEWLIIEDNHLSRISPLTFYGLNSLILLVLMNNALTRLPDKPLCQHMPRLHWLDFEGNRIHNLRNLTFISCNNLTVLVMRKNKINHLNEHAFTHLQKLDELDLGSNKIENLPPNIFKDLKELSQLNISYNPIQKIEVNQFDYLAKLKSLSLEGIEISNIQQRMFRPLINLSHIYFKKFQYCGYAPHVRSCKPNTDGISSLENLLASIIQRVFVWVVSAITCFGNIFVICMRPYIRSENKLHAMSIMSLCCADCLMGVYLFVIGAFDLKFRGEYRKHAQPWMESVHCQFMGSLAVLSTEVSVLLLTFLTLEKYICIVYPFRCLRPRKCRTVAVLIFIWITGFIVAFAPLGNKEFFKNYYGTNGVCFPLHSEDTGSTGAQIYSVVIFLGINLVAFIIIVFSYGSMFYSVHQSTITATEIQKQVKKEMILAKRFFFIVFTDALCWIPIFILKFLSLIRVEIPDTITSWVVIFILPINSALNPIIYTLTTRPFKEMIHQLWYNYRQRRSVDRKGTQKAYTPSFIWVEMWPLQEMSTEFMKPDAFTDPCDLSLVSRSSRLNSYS
Kind of data set: Agonist activity at rat RXFP1 expressed in human […] cells assessed as increase in IBMX-induced cAMP accumulation pretreated with IBMX for 40 mins followed by compound addition and measured after 30 mins by HTRF assay. The format is cell-based, HEK293.

In data set [5] the target is T4, Relaxin receptor 1 (Rattus norvegicus) (UniProt Q6R6I6).
T4 sequence (whole entry): T3 sequence (Q6R6I6 whole entry)
As to the kind of experiment: Agonist activity at rat RXFP1 expressed in human […] cells assessed as increase in IBMX-induced cAMP accumulation pretreated with IBMX for 40 mins followed by compound addition and measured after 30 mins by HTRF assay relative to control. Format: cell-based. The note with it: HEK293, filed as agonist. (Cyclic AMP is a second messenger, typically raised through Gs and lowered through Gi signalling.)

The nature of data set [6]: Half life in Sprague-Dawley rat at 1 mg/kg, iv measured upto 72 hrs by LC-HRMS analysis. Format: ADME, organism-based. The note with it: in vivo.
The target of data set [7] is T1, Relaxin receptor 1. Kind of data set: Displacement of Eu3+-labelled H2 relaxin from human RXFP1 expressed in human HEK-293T cells in presence of 10 % FCS by competition binding assay. Format: cell-based.
The target in data set [8] is T1, Relaxin receptor 1. Kind of data set: Agonist activity at human RXFP1 expressed in human HEK-293T cells co-transfected with pCRE beta-galactosidase reporter plasmid assessed as […] of IBMX-induced cAMP accumulation incubated for 30 mins by HTRF assay. The format is functional, cell-based.

For the compound `CC[C@H](C)[C@@H]1NC(=O)[C@H](C)NC(=O)[C@H]([C@@H](C)CC)NC(=O)[C@H](CCC(N)=O)NC(=O)[C@H](C)NC(=O)[C@H](CCCNC(=N)N)NC(=O)[C@H](C(C)C)NC(=O)[C@H](CC(C)C)NC(=O)[C@H](CCC(=O)O)NC(=O)[C@H](CCCNC(=N)N)NC(=O)CNC(=O)[C@@H](NC(=O)[C@H](CC(C)C)NC(=O)[C@H](CCCCN)NC(=O)[C@@H](NC(=O)[C@@H](NC(=O)[C@H](CCC(=O)O)NC(=O)[C@H](CCC(=O)O)NC(=O)[C@H](CCSC)NC(=O)[C@H](Cc2c[nH]c3ccccc23)NC(=O)[C@H](CO)NC(=O)[C@@H](N)CC(=O)O)C(C)C)[C@@H](C)CC)CSSC[C@@H]2NC(=O)[C@@H](NC(=O)[C@H](CCCCN)NC(=O)[C@H](CC(N)=O)NC(=O)[C@H](C)NC(=O)[C@H](CC(C)C)NC(=O)[C@H](C)NC(=O)[C@H](CO)NC(=O)[C@H](Cc3ccc(O)cc3)NC(=O)[C@@H](N)CC(C)C)CSCCSC[C@H](NC(=O)CNC(=O)[C@H](C(C)C)NC(=O)[C@H](Cc3cnc[nH]3)NC2=O)C(=O)N[C@@H]([C@@H](C)O)C(=O)N[C@@H](CCCCN)C(=O)N[C@@H](CCCNC(=N)N)C(=O)N[C@@H](CO)C(=O)N[C@@H](CC(C)C)C(=O)N[C@@H](C)C(=O)N[C@@H](CCCNC(=N)N)C(=O)N[C@@H](Cc2ccccc2)C(=O)NC(C(=O)O)CSSC[C@@H](C(=O)NCC(=O)N[C@@H](CCSC)C(=O)N[C@@H](CO)C(=O)N[C@H](C(=O)N[C@@H](Cc2c[nH]c3ccccc23)C(=O)N[C@@H](CO)C(=O)O)[C@@H](C)O)NC1=O` (stereo partly drawn), the half-maximal effective concentration (EC50) was 0.42 nM at Relaxin receptor 1 [1], 0.5 nM on Relaxin receptor 1 [4] and 0.0324 nM on Relaxin receptor 1 [8]. The maximal effect (Emax) in data set [2] and in data set [5] was 100% in each case. Further, the Activity in data set [3] was determined as 60%. This compound gave a half-life in data set [6] of 27.6 min. Also, at Relaxin receptor 1 [7], the Ki is 1.1 nM.
